Measurements from patent publication US20220249504A1, “LONGEVITY SIGNATURES AND THEIR APPLICATIONS” (The Brigham and Women's Hospital, Inc., priority 2019, published 2022).
“Also recorded” adds a separate entry of the source.

Experiments:
Format in all cases: in vivo, mouse
C57BI/6 mice = assay: Lifespan of old (2-year-old) C57BL/6 mice given a diet containing the compound
Procedure: (§1) Briefly, 24-28 mice per intervention were used, with an approximately equal number of males and females. Mice were first assessed with regard to frailty index and gait speed, and then randomized to make sure the experimental and control groups had the same average frailty index and gait speed. Mice were then given a diet containing a compound of interest. […] Mice were monitored daily until they died. A separate cohort of old mice was assessed for frailty index and gait speed.
Interventions were predicted in a screen based on the gene expression longevity signatures that we developed. The predicted interventions were then verified for gene expression responses in human and mouse primary cell culture (hepatocytes) and in live mice (after mice were fed for 1 month with the diets containing these interventions). The interventions that passed these tests were further assessed for the effect on lifespan of 2-year-old C57BI/6 mice. Older mice (2-year-old) were chosen for this experiment in order to mimic the effect of giving interventions to human subjects in their second half of life.
as §1, with “females. They” for “females. Mice”

C57BL/6 mice [1] = assay: Frailty index of old C57BL/6 mice on compound diet
Procedure: as §1
as §1, with “females. They” for “females. Mice”

[2] = tested on: immune cells in the spleen; assay: Population of immune cells in the spleen by FACS; settings: 27-month-old C57BI/6 females
Procedure: Population of immune cells in the spleen is not altered by Selumetinib (n=7 for Control, n=12 for Selumetinib). 27-month-old C57BI/6 females were used. Cells were analyzed by FACS: B-cells are CD45+CD19+, T-cells are CD45+CD3+, and myeloid cells are CD45+CD11b+.

longevity signatures = assay: GSEA-based association of hepatic gene expression response (RNAseq, UM-HET3 mice on compound diet for 1 month) with longevity signatures; settings: UM-HET3 male mice, compound in diet for 1 month, liver RNAseq
Description: Four-month old UM-HET3 mice were subjected to diets for 1 month, followed by gene expression analyses.
To validate the above approach and predictions, specific gene expression datasets were chosen from the GEO database that correspond to the effect of certain interventions considered to be health- and lifespan-extending or shortening on mouse liver (FIG. 16). […] UM-HET3 mice were then subjected to these compounds for 1 month, at which point the mice were sacrificed and subjected to gene expression analysis. Finally, the association GSEA-based test was applied to validate the findings (FIG. 16).
Second, diets were prepared for 24 of the identified compounds. These diets were administered to mice for 1 month, and ensuing gene expression changes were monitored. […]
For samples corresponding to lifespan-extending interventions, paired-end sequencing with 100 bp read length was performed on illumine HiSeq2000 platform. For samples corresponding to predicted compounds, libraries were prepared as described in (Hashimshony et al., 2016) and sequenced with 100 bp read length option on the Illumina HiSeq2500. […] Processed/cleaned reads were then mapped with STAR (version 2.5.2b) (Dobin et al., 2013) and counted via featureCounts (Liao et al., 2014). […]

C57BL/6 mice [3] = assay: Gait speed of old C57BL/6 mice on compound diet; settings: 31-month-old C57BL/6 male mice
Procedure: as §1
as §1, with “females. They” for “females. Mice”

C57BL/6 mice [4] = assay: Glucose tolerance in old C57BL/6 mice on compound diet; settings: old C57BL/6 mice at the dose given in diet (AZD-8055: 23-month-old, treated 2.5 months)
Procedure: 23-month-old mice were treated for 2.5 months prior to analyses.

Row | SMILES | Effect on lifespan (C57BI/6 mice; C57BL/6 mice (Selumetinib: males and females combined), given late in life, ad libitum (Selumetinib 100 mg/kg of diet, Celastrol 8 mg/kg of food)) | Effect on lifespan (C57BI/6 mice; independent cohort of female C57BL/6 mice, Selumetinib 100 mg/kg of diet) | Effect on frailty index (C57BL/6 mice [1]; 31-month-old C57BL/6 female mice) | Relative populations of immune cells in the spleen (B-cells, T-cells, myeloid cells) [2] | Association of hepatic gene expression response with longevity signatures (longevity signatures) | Effect on lifespan (C57BI/6 mice; C57BL/6 male mice, given late in life, ad libitum in diet (AZD-8055 20 mg/kg of food, LY294002 600 mg/kg, KU-0063794 10 mg/kg of diet)) | Effect on frailty index (C57BL/6 mice [1]; 31-month-old C57BL/6 male mice) | Effect on gait speed (C57BL/6 mice [3]) | Effect on glucose tolerance (C57BL/6 mice [4])
1 | Cn1cnc2c(F)c(Nc3ccc(Br)cc3Cl)c(C(=O)NOCCO)cc21 [Selumetinib, 6-(4-Bromo-2-chloroanilino)-7-fluoro-N-(2-hydroxyethoxy)-3-methylbenzimidazole-5-carboxamide] | extends lifespan | extends lifespan | improves | not altered; also recorded: does not alter |  |  |  |  | 
2 | C1COC(NC(C2CC2)C2CC2)=N1 [rilmenidine, N-(Dicyclopropylmethyl)-4,5-dihydro-1,3-oxazol-2-amine] |  |  |  |  | positive association with some of the signatures, including CR and GH deficiency, but not with the signatures associated with the lifespan extension effect |  |  |  | 
3 | COc1ccc(-c2ccc3c(N4CCOCC4)nc(N4C[C@@H](C)O[C@@H](C)C4)nc3n2)cc1CO [KU-0063794, rel-5-[2-[(2R,6S)-2,6-dimethyl-4-morpholinyl]-4-(4-morpholinyl)pyrido[2,3-d]pyrimidin-7-yl]-2-methoxybenzenemethanol] |  |  |  |  | consistent positive association with all lifespan-extending interventions, except for rapamycin | extend lifespan | improved | improved | No effect; also recorded: did not have a significant effect
